Measured values published in patent US10633366B2, “Antibacterial compounds” (AZIENDE CHIMICHE RIUNITE ANGELINI FRANCESCO A.C.R.A.F. …, priority 2016, dated 2020).
pIC50: −log10 of the molar value. Read-outs that look alike come from different tables or passages of the source.

What was measured:
Test in all cases: biochemical
E. coli DNA gyrase = E. coli DNA gyrase (Escherichia coli, UniProt P0AES4+P0AES6); settings: for pIC50: IC50 DNA gyrase; for inhibition at 50 µM: read-out: % inhibition DNA gyrase
Sequence of E. coli DNA gyrase (P0AES4 whole entry, one chain of several): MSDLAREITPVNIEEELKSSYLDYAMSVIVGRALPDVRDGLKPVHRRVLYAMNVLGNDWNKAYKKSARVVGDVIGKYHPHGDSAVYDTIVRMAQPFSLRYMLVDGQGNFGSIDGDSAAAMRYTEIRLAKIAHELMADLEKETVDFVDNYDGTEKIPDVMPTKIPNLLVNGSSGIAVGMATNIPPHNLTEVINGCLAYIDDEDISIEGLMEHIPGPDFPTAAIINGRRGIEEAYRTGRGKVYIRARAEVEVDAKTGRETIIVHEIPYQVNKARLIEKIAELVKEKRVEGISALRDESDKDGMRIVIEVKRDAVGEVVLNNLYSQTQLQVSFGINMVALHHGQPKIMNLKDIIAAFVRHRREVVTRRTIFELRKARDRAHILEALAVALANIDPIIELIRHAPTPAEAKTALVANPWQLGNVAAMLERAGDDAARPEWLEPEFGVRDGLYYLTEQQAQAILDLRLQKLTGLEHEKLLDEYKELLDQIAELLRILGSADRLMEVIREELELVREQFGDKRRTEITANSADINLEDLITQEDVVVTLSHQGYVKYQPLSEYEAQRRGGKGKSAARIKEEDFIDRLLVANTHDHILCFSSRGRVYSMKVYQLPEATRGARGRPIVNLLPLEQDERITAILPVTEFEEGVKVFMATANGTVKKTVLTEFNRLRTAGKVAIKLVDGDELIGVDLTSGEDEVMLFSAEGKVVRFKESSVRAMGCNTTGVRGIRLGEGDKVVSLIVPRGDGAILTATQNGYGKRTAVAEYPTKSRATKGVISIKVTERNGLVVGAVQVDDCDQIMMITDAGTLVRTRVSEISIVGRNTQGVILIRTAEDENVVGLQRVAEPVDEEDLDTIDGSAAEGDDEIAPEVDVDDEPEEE

E. coli Topoisomerase IV = E. coli Topoisomerase IV (Escherichia coli, UniProt P0AFI2+P20083); settings: for pIC50: IC50 Topo IV; for inhibition at 50 µM: read-out: % inhibition Topo IV
Sequence of E. coli Topoisomerase IV (P0AFI2 whole entry): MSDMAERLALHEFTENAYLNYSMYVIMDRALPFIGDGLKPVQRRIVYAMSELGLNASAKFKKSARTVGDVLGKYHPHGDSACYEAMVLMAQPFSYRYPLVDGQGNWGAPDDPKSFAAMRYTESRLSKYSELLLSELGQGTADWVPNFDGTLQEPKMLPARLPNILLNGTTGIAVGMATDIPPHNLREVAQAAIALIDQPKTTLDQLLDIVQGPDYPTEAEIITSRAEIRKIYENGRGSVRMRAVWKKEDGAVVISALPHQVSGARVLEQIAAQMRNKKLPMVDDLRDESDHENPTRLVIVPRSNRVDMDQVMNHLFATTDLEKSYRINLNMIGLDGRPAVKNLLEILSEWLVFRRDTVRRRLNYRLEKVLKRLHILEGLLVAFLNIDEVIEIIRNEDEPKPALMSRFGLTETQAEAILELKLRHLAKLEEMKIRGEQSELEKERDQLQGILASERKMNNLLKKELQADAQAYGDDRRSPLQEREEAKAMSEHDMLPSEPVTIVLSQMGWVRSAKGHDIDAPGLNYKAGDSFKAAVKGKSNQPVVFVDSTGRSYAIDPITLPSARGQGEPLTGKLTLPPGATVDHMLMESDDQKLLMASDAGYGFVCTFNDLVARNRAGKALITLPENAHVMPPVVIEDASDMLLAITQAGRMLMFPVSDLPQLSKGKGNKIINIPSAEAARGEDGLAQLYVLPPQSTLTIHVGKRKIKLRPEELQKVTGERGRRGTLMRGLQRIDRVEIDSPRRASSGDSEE
Sequence of E. coli Topoisomerase IV (P20083 whole entry): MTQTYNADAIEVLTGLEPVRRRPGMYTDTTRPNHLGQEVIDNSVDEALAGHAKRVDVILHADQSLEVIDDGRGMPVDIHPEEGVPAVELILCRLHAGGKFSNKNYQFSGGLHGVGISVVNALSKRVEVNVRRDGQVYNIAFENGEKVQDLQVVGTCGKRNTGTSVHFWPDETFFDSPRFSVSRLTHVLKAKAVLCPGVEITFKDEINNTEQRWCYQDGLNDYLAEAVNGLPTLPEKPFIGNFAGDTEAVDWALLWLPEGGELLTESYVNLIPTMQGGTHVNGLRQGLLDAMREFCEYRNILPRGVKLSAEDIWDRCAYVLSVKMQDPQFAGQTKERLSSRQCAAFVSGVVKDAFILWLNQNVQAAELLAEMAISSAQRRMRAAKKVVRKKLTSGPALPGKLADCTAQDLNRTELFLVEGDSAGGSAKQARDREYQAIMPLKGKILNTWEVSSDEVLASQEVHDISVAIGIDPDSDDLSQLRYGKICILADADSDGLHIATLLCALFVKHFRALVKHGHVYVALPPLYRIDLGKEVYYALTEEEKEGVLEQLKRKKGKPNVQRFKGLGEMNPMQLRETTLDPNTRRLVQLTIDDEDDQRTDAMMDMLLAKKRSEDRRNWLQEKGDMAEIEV

S. aureus DNA gyrase = S. aureus DNA gyrase (Staphylococcus aureus, UniProt P0A0K8+P20831); settings: for pIC50: IC50 DNA gyrase; for inhibition at 50 µM: read-out: % inhibition DNA gyrase
[1] = target: S. aureus Topoisomerase IV (Staphylococcus aureus, UniProt P0C1S7+P0C1U9); settings: for inhibition at 50 µM: read-out: % inhibition Topo IV
Sequence of S. aureus Topoisomerase IV (P0C1U9 whole entry): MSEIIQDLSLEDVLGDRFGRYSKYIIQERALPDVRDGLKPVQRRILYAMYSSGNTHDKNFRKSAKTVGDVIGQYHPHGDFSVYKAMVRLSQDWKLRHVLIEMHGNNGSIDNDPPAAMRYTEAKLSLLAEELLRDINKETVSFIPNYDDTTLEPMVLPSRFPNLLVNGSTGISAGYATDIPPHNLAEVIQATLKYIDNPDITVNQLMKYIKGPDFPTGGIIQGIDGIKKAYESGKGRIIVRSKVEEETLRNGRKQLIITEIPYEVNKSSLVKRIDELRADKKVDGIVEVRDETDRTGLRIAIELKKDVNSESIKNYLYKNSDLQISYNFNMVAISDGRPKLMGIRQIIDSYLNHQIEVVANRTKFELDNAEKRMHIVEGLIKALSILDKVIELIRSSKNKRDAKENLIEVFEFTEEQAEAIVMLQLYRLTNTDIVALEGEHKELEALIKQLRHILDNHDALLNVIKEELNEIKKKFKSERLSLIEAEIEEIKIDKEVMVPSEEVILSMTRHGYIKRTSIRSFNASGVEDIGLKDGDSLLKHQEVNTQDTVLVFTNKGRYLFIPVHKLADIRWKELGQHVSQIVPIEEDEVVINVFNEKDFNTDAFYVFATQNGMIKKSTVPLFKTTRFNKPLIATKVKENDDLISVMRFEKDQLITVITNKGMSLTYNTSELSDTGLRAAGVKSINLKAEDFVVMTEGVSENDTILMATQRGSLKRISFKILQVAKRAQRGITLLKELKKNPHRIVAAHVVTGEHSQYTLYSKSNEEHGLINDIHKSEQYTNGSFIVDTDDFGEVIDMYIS
Sequence of S. aureus Topoisomerase IV (P0C1S7 whole entry): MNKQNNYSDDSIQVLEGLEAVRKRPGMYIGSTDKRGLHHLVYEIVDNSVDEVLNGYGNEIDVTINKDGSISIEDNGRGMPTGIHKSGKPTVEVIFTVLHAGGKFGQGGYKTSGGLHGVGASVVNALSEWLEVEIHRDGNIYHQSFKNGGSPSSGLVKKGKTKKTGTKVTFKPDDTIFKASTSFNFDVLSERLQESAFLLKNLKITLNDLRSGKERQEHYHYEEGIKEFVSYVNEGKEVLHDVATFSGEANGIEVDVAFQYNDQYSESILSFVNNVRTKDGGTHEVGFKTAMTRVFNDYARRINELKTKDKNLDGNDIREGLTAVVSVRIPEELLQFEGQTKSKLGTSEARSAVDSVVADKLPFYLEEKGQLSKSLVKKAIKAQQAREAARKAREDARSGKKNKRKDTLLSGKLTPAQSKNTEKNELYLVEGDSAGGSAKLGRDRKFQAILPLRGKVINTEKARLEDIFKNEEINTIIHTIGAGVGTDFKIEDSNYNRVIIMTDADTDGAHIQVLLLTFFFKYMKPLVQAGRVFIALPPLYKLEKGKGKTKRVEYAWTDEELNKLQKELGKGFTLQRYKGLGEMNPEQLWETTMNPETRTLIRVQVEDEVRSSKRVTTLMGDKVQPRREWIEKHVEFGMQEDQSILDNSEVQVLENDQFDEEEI

[2] = S. aureus, compound conc. 50 μM, percent of inhibition versus positive control, n/a = not active

O=c1nc(NCC(O)CN2CCN(c3nccc4ccncc34)CC2)c2cc(F)ccc2o1 (stereo not drawn) [Compound 157, 6-fluoro-4-({2-hydroxy-3-[4-(2,7-naphthyridin-1-yl)piperazin-1-yl]propyl}amino)-2H-1,3-benzoxazin-2-one]
pIC50 (E. coli DNA gyrase): 5.63
inhibition at 50 µM (E. coli DNA gyrase): 83%
pIC50 (E. coli Topoisomerase IV): 6.19
inhibition at 50 µM (E. coli Topoisomerase IV): 100%
pIC50 (S. aureus DNA gyrase): 5.61
inhibition at 50 µM (S. aureus DNA gyrase): 89%
pIC50 ([1]; S. aureus, Table 3, eight half-log concentrations ranging from 0.1 to 300 μM, read-out: IC50 Topo IV): 5.99
inhibition at 50 µM [1]: 100%

O=c1oc2ccccc2c2[nH]c(CNCC3CCN(c4nccc5ccc(F)cc45)C3)cc12 (single isomer, unassigned) [Compound 181, 2-[({[1-(7-fluoroisoquinolin-1-yl)pyrrolidin-3-yl]methyl}amino)methyl][1]benzopyrano[4,3-b]pyrrol-4(1H)-one]
% inhibition DNA gyrase (E. coli DNA gyrase): 53%
pIC50 (E. coli DNA gyrase): 6.36
% inhibition Topo IV (E. coli Topoisomerase IV): 91%
pIC50 (E. coli Topoisomerase IV): 5.44
% inhibition DNA gyrase (S. aureus DNA gyrase): 92%
pIC50 (S. aureus DNA gyrase): 6.14
pIC50 ([1]; IC50 Topo IV): 6.44
% inhibition Topo IV [1, 2]: 50%

COc1ccc2ncc(=O)n(C3CCN(CCc4cc5c(=O)oc6ccc(F)cc6c5[nH]4)CC3)c2n1 [Compound 197, 8-fluoro-2-{2-[4-(6-methoxy-3-oxopyrido[2,3-b]pyrazin-4(3H)-yl)piperidin-1-yl]ethyl}[1]benzopyrano[4,3-b]pyrrol-4(1H)-one]
inhibition at 50 µM (E. coli DNA gyrase): 87%
inhibition at 50 µM (E. coli Topoisomerase IV): 63%
inhibition at 50 µM (S. aureus DNA gyrase): 90%
inhibition at 50 µM [1]: 79%

N#Cc1cnc2c(c1)N([C@H]1CC[C@@H](NCc3cc4c(=O)oc5ccc(F)cc5c4[nH]3)CC1)C(=O)CO2 [Compound 215, 1-(cis-4-{[(8-fluoro-4-oxo-1,4-dihydro[1]benzopyrano[4,3-b]pyrrol-2-yl)methyl]amino}cyclohexyl)-2-oxo-2,3-dihydro-1H-pyrido[2,3-b][1,4]oxazine-7-carbonitrile]
inhibition at 50 µM (E. coli DNA gyrase): 69%
inhibition at 50 µM (S. aureus DNA gyrase): 96%

Fc1ccc2ccnc(N3CCC(NCc4c[nH]c(-c5ccccn5)n4)CC3)c2c1 [Compound 160, 1-(7-fluoroisoquinolin-1-yl)-N-{[2-(pyridin-2-yl)-1H-imidazol-4-yl]methyl}piperidin-4-amine]
inhibition at 50 µM (E. coli DNA gyrase): 50%
pIC50 (E. coli Topoisomerase IV): 4.67
inhibition at 50 µM (E. coli Topoisomerase IV): 60%
pIC50 (S. aureus DNA gyrase): 4.68
inhibition at 50 µM (S. aureus DNA gyrase): 65%

O=c1oc2ccc(F)cc2c2[nH]c(CN[C@H]3CC[C@H](n4c(=O)ccc5ccc(F)cc54)CC3)cc12 [Compound 216, 8-fluoro-2-({[trans-4-(7-fluoro-2-oxoquinolin-1(2H)-yl)cyclohexyl]amino}methyl)[1]benzopyrano[4,3-b]pyrrol-4(1H)-one]
pIC50 (E. coli DNA gyrase): 6.89
inhibition at 50 µM (E. coli DNA gyrase): 100%
pIC50 (E. coli Topoisomerase IV): 6.60
inhibition at 50 µM (E. coli Topoisomerase IV): 100%
pIC50 (S. aureus DNA gyrase): 6.51
inhibition at 50 µM (S. aureus DNA gyrase): 100%
pIC50 ([1]; IC50 Topo IV): 6.54
inhibition at 50 µM [1, 2]: 100%

COc1ccc2ccc(=O)n([C@H]3CC[C@H](NCc4cc5c(=O)oc6ccc(F)cc6c5[nH]4)CC3)c2c1 [Compound 219, 8-fluoro-2-({[trans-4-(7-methoxy-2-oxoquinolin-1(2H)-yl)cyclohexyl]amino}methyl)[1]benzopyrano[4,3-b]pyrrol-4(1H)-one]
pIC50 (E. coli DNA gyrase): 6.66
inhibition at 50 µM (E. coli DNA gyrase): 100%
pIC50 (E. coli Topoisomerase IV): 6.66
inhibition at 50 µM (E. coli Topoisomerase IV): 100%
pIC50 (S. aureus DNA gyrase): 6.66
inhibition at 50 µM (S. aureus DNA gyrase): 100%
pIC50 ([1]; IC50 Topo IV): 6.19
inhibition at 50 µM [1, 2]: 100%

COc1cnc2ccc(=O)n([C@H]3CC[C@@H](NCc4cc5c(=O)oc6ccc(F)cc6c5[nH]4)CC3)c2c1 [Compound 205, 8-fluoro-2-({[cis-4-(7-methoxy-2-oxo-1,5-naphthyridin-1(2H)-yl)cyclohexyl]amino}methyl)[1]benzopyrano[4,3-b]pyrrol-4(1H)-one]
pIC50 (E. coli DNA gyrase): 7.00
inhibition at 50 µM (E. coli DNA gyrase): 100%
pIC50 (E. coli Topoisomerase IV): 6.51
inhibition at 50 µM (E. coli Topoisomerase IV): 100%
pIC50 (S. aureus DNA gyrase): 6.77
inhibition at 50 µM (S. aureus DNA gyrase): 100%
pIC50 ([1]; IC50 Topo IV): 7.00
inhibition at 50 µM [1, 2]: 100%

O=C1COc2ncc(F)cc2N1C1CCN(CC(O)CNc2cc(=O)oc3ccc(F)cc23)CC1 (stereo not drawn) [Compound 303, 7-fluoro-1-(1-{3-[(6-fluoro-2-oxo-2H-1-benzopyran-4-yl)amino]-2-hydroxypropyl}piperidin-4-yl)-1H-pyrido[2,3-b][1,4]oxazin-2(3H)-one]
pIC50 (E. coli DNA gyrase): 5.57
pIC50 (E. coli Topoisomerase IV): 6.21
pIC50 (S. aureus DNA gyrase): 5.00
pIC50 ([1]; IC50 Topo IV): < 4.00

COc1ccc2ncc(=O)n([C@H]3CC[C@H](NCc4cc5c(=O)oc6ccc(F)cc6c5[nH]4)CC3)c2c1 [Compound 208, 8-fluoro-2-({[trans-4-(7-methoxy-2-oxoquinoxalin-1(2H)-yl)cyclohexyl]amino}methyl)[1]benzopyrano[4,3-b]pyrrol-4(1H)-one]
pIC50 (E. coli DNA gyrase): 7.10
inhibition at 50 µM (E. coli DNA gyrase): 100%
pIC50 (E. coli Topoisomerase IV): 6.57
inhibition at 50 µM (E. coli Topoisomerase IV): 100%
pIC50 (S. aureus DNA gyrase): 6.96
inhibition at 50 µM (S. aureus DNA gyrase): 100%
pIC50 ([1]; IC50 Topo IV): 6.89
inhibition at 50 µM [1, 2]: 100%

COc1cnc2c(c1)N([C@H]1CC[C@H](NCc3cc4c(=O)oc5ccc(F)cc5c4[nH]3)CC1)C(=O)CO2 [Compound 302, 8-fluoro-2-({[trans-4-(7-methoxy-2-oxo-2,3-dihydro-1H-pyrido[2,3-b][1,4]oxazin-1-yl)cyclohexyl]amino}methyl)[1]benzopyrano[4,3-b]pyrrol-4(1H)-one]
pIC50 (E. coli DNA gyrase): 6.23
pIC50 (E. coli Topoisomerase IV): 6.92
pIC50 (S. aureus DNA gyrase): 6.24
pIC50 ([1]; S. aureus, Table 4, eight half-log concentrations ranging from 0.1 to 300 μM, read-out: IC50 Topo IV): 5.49

O=c1oc2ccccc2c2[nH]c(CNCC3CN(c4nccc5ccc(F)cc45)CCO3)cc12 (single isomer, unassigned) [Compound 183, 2-[({[4-(7-fluoroisoquinolin-1-yl)morpholin-2-yl]methyl}amino)methyl][1]benzopyrano[4,3-b]pyrrol-4(1H)-one]
% inhibition DNA gyrase (E. coli DNA gyrase): 81%
pIC50 (E. coli DNA gyrase): 6.11
% inhibition Topo IV (E. coli Topoisomerase IV): 77%
pIC50 (E. coli Topoisomerase IV): 5.61
% inhibition DNA gyrase (S. aureus DNA gyrase): 84%
pIC50 (S. aureus DNA gyrase): 6.13
pIC50 ([1]; IC50 Topo IV): 6.72
% inhibition Topo IV [1, 2]: 85%

O=c1oc2ccc(F)cc2c2[nH]c(CN[C@H]3CC[C@H](n4c(=O)cnc5ncc(F)cc54)CC3)cc12 [Compound 209, 8-fluoro-2-({[trans-4-(7-fluoro-2-oxopyrido[2,3-b]pyrazin-1(2H)-yl)cyclohexyl]amino}methyl)[1]benzopyrano[4,3-b]pyrrol-4(1H)-one]
pIC50 (E. coli DNA gyrase): 6.89
inhibition at 50 µM (E. coli DNA gyrase): 100%
pIC50 (E. coli Topoisomerase IV): 6.00
inhibition at 50 µM (E. coli Topoisomerase IV): 100%
pIC50 (S. aureus DNA gyrase): 6.52
inhibition at 50 µM (S. aureus DNA gyrase): 100%
pIC50 ([1]; IC50 Topo IV): 6.66
inhibition at 50 µM [1, 2]: 100%

O=c1nc(NCC(O)CN2CCN(c3nccc4cc[n+]([O-])cc34)CC2)c2cc(F)ccc2o1 (stereo not drawn) [Compound 164, 8-(4-(3-((6-fluoro-2-oxo-2H-benzo[e][1,3]oxazin-4-yl)amino)-2-hydroxypropyl)piperazin-1-yl)-2,7-naphthyridine 2-oxide]
pIC50 (E. coli DNA gyrase): 5.42
inhibition at 50 µM (E. coli DNA gyrase): 100%
pIC50 (E. coli Topoisomerase IV): 5.75
inhibition at 50 µM (E. coli Topoisomerase IV): 100%
pIC50 (S. aureus DNA gyrase): 5.84
inhibition at 50 µM (S. aureus DNA gyrase): 100%
pIC50 ([1]; IC50 Topo IV): 6.15
inhibition at 50 µM [1]: 100%

COc1ccc2ccc(=O)n(C3CCN(CCc4cc5c(=O)oc6ccc(F)cc6c5[nH]4)CC3)c2n1 [Compound 202, 8-fluoro-2-{2-[4-(7-methoxy-2-oxo-1,8-naphthyridin-1(2H)-yl)piperidin-1-yl]ethyl}[1]benzopyrano[4,3-b]pyrrol-4(1H)-one]
inhibition at 50 µM (E. coli DNA gyrase): 100%
inhibition at 50 µM (E. coli Topoisomerase IV): 100%
inhibition at 50 µM (S. aureus DNA gyrase): 100%
inhibition at 50 µM [1]: 100%

O=c1oc2ccccc2c2[nH]c(CNCC3CN(c4nccc5ccc(F)cc45)CCO3)cc12 (single isomer, unassigned) [Compound 182, 2-[({[4-(7-fluoroisoquinolin-1-yl)morpholin-2-yl]methyl}amino)methyl][1]benzopyrano[4,3-b]pyrrol-4(1H)-one]
pIC50 (E. coli DNA gyrase): 6.13
inhibition at 50 µM (E. coli DNA gyrase): 61%
% inhibition Topo IV (E. coli Topoisomerase IV): 52%
pIC50 (E. coli Topoisomerase IV): 5.49
pIC50 (S. aureus DNA gyrase): 6.19
inhibition at 50 µM (S. aureus DNA gyrase): 92%
pIC50 ([1]; IC50 Topo IV): 6.13
% inhibition Topo IV [1, 2]: 50a %

O=C1COc2ncc(F)cc2N1[C@H]1CC[C@H](N(CCO)Cc2cc3c(=O)oc4ccc(F)cc4c3[nH]2)CC1 [Compound 221, 8-fluoro-2-({[trans-4-(7-fluoro-2-oxo-2,3-dihydro-1H-pyrido[2,3-b][1,4]oxazin-1-yl)cyclohexyl](2-hydroxyethyl)amino}methyl)[1]benzopyrano[4,3-b]pyrrol-4(1H)-one]
pIC50 (E. coli DNA gyrase): 6.04
inhibition at 50 µM (E. coli DNA gyrase): 81%
pIC50 (E. coli Topoisomerase IV): 6.17
inhibition at 50 µM (E. coli Topoisomerase IV): 50%
pIC50 (S. aureus DNA gyrase): 5.56
inhibition at 50 µM (S. aureus DNA gyrase): 100%
pIC50 ([1]; IC50 Topo IV): 5.58
inhibition at 50 µM [1, 2]: 100%

O=C1COc2ncc(F)cc2N1[C@H]1CC[C@H](NCc2cc3ncc4c(c3[nH]2)OCCO4)CC1 [Compound 314, 1-[trans-4-{[(2,3-dihydro-9H-[1,4]dioxino[2,3-d]pyrrolo[3,2-b]pyridin-8-yl)methyl]amino}cyclohexyl]-7-fluoro-1H-pyrido [2,3-b][1,4]oxazin-2(3H)-one]
pIC50 (E. coli DNA gyrase): 6.07
pIC50 (E. coli Topoisomerase IV): 5.94
pIC50 (S. aureus DNA gyrase): 5.15
pIC50 ([1]; IC50 Topo IV): < 4.00

COc1cnc2ccc(=O)n(C3CCN(CCc4cc5c(=O)oc6ccc(F)cc6c5[nH]4)CC3)c2n1 [Compound 200]
pIC50 (E. coli DNA gyrase): 7.40
inhibition at 50 µM (E. coli DNA gyrase): 90%
pIC50 (E. coli Topoisomerase IV): > 7.00
inhibition at 50 µM (E. coli Topoisomerase IV): 100%
pIC50 (S. aureus DNA gyrase): > 7.00
inhibition at 50 µM (S. aureus DNA gyrase): 100%
pIC50 ([1]; IC50 Topo IV): > 7.00
inhibition at 50 µM [1]: 100%
